Laboratory results published in patent US10766869B2, “Triazoles for the treatment of demyelinating dieases” (Vertex Pharmaceuticals Incorporated, priority 2015, dated 2020).

Tested on: primary rat mixed cortical cells
Assay: In vitro myelination assay (MBP positive myelin strands, fold myelin pixels above background)
Type: cell-based
Conditions: Rattus norvegicus, relative to baseline of no added compound, read-out: Fold myelin pixels above background; for fold induction at 1 µM: 1.0 μM compound; for fold induction at 10 µM: 10.0 μM compound
How it was run: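 Compounds at 1.0 and 10.0 μM were incubated 14 days with dissociated P1 rat cortical cells, which were then fixed and immunostained for MBP. Myelination was scored as fold MBP myelin pixels per well over the no-compound baseline.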

| Compound | fold induction at 1 µM | fold induction at 10 µM |
| --- | --- | --- |
| Cc1cc(Nc2ncn(-c3cc(F)cc(F)c3)n2)cc(NC2CC2)c1 [Compound 448, N1-cyclopropyl-N3-[1-(3,5-difluorophenyl)-1,2,4-triazol-3-yl]-5-methyl-benzene-1,3-diamine] | 100 to 1000 | 1 to 10 |
| CC(=O)N1CCCC(c2cc(C)cc(Nc3ncn(-c4ccncn4)n3)c2)C1 (stereo not shown) [Compound 449, 1-[3-[3-methyl-5-[(1-pyrimidin-4-yl-1,2,4-triazol-3-yl)amino]phenyl]-1-piperidyl]ethanone] | 100 to 1000 | ≤ 1 |
| CN1CCN(c2cc(F)cc(Nc3ncn(-c4ccc(F)cc4F)n3)c2)CC1 [Compound 450, 1-(2,4-difluorophenyl)-N-[3-fluoro-5-(4-methylpiperazin-1-yl)phenyl]-1,2,4-triazol-3-amine] | ≤ 1 | ≤ 1 |
| Cc1cc(N2CCOCC2)cc(Nc2ncn(-c3cccnc3)n2)c1F [Compound 451, N-(2-fluoro-3-methyl-5-morpholino-phenyl)-1-(3-pyridyl)-1,2,4-triazol-3-amine] | 1 to 10 | 100 to 1000 |
| Fc1cc(Nc2ncn(-c3ccccc3)n2)cc(C2CCNC2)c1 (stereo not shown) [Compound 452, N-(3-fluoro-5-pyrrolidin-3-yl-phenyl)-1-phenyl-1,2,4-triazol-3-amine] | 10 to 100 | ≤ 1 |
| Cc1cc(Nc2ncn(-c3cc(F)cc(F)c3)n2)cc(N2CCN(C3CC(F)(F)C3)CC2)c1 [Compound 453, N-[3-[4-(3,3-difluorocyclobutyl)piperazin-1-yl]-5-methyl-phenyl]-1-(3,5-difluorophenyl)-1,2,4-triazol-3-amine] | 10 to 100 | 1000 to 10000 |
| Cc1nccc(-n2cnc(Nc3cc(C4CC4)cc(N4CCN(C5COC5)CC4)c3)n2)n1 [Compound 454, N-[3-cyclopropyl-5-[4-(oxetan-3-yl)piperazin-1-yl]phenyl]-1-(2-methylpyrimidin-4-yl)-1,2,4-triazol-3-amine] | ≤ 1 | 1 to 10 |
| Cc1cc(Nc2ncn(-c3ccccc3)n2)cc(N2CCN(c3ccccc3F)CC2)c1 [Compound 455, N-[3-[4-(2-fluorophenyl)piperazin-1-yl]-5-methyl-phenyl]-1-phenyl-1,2,4-triazol-3-amine] | ≤ 1 | 10 to 100 |
| Fc1cc(F)cc(-n2cnc(Nc3cc(C4CCOC4)cc(N4CCOCC4)c3)n2)c1 (stereo not shown) [Compound 456, 1-(3,5-difluorophenyl)-N-(3-morpholino-5-tetrahydrofuran-3-yl-phenyl)-1,2,4-triazol-3-amine] | 1000 to 10000 | 100 to 1000 |
| Cc1cc(Nc2ncn(-c3cc(F)cc(F)c3)n2)cc(N2CCC(F)CC2)n1 [Compound 457, N-[1-(3,5-difluorophenyl)-1,2,4-triazol-3-yl]-2-(4-fluoro-1-piperidyl)-6-methyl-pyridin-4-amine] | 1000 to 10000 | 1000 to 10000 |
| Cc1cc(Nc2ncn(-c3cc(F)cc(F)c3)n2)cc(N2CCN(C(=O)C3CC3)CC2)c1 [Compound 458] | 1000 to 10000 | 100 to 1000 |
| Cc1cc(Nc2ncn(-c3cc(F)cc(F)c3)n2)cc(N2C[C@H]3C[C@@H]2CN3C)c1 [Compound 459, 1-(3,5-difluorophenyl)-N-[3-methyl-5-[(1R,4R)-5-methyl-2,5-diazabicyclo[2.2.1]heptan-2-yl]phenyl]-1,2,4-triazol-3-amine] | 10 to 100 | ≤ 1 |
| F[C@H]1CCN(c2cc(Nc3ncn(-c4ccccc4)n3)cc(C3CC3)n2)C1 [Compound 460, 2-cyclopropyl-6-[(3S)-3-fluoropyrrolidin-1-yl]-N-(1-phenyl-1,2,4-triazol-3-yl)pyridin-4-amine] | 100 to 1000 | 10 to 100 |
| Cc1cc(Nc2ncn(-c3ccccc3)n2)cc(N2CCN(CC(C)(C)O)CC2)c1 [Compound 461, 2-methyl-1-[4-[3-methyl-5-[(1-phenyl-1,2,4-triazol-3-yl)amino]phenyl]piperazin-1-yl]propan-2-ol] | 1000 to 10000 | ≤ 1 |
| Fc1cccc(-n2cnc(Nc3cc(C4CC4)cc(N4CCN(C5COC5)CC4)c3)n2)c1 [Compound 462, N-[3-cyclopropyl-5-[4-(oxetan-3-yl)piperazin-1-yl]phenyl]-1-(3-fluorophenyl)-1,2,4-triazol-3-amine] | 100 to 1000 | ≤ 1 |
| CCc1cc(Nc2ncn(-c3cccc(SC)c3)n2)cc(N2CCN(C3COC3)CC2)c1 [Compound 463, N-[3-ethyl-5-[4-(oxetan-3-yl)piperazin-1-yl]phenyl]-1-(3-methylsulfanylphenyl)-1,2,4-triazol-3-amine] | 1 to 10 | ≤ 1 |

| Compound | fold induction at 1 µM | fold induction at 10 µM |
| --- | --- | --- |
| COCC1CCN(c2cc(C)cc(Nc3ncn(-c4ccncn4)n3)c2)CC1 [Compound 464, N-[3-[4-(methoxymethyl)-1-piperidyl]-5-methyl-phenyl]-1-pyrimidin-4-yl-1,2,4-triazol-3-amine] | 10 to 100 | 100 to 1000 |
| C1=C(c2cc(Nc3ncn(-c4ccccc4)n3)cc(N3CCOCC3)c2)COC1 [Compound 465, N-[3-(2,5-dihydrofuran-3-yl)-5-morpholino-phenyl]-1-phenyl-1,2,4-triazol-3-amine] | 100 to 1000 | ≤ 1 |
| Cc1cc(Nc2ncn(-c3cc(F)cc(F)c3)n2)cc(C2CCCN(C3CC3)C2)c1 (stereo not shown) [Compound 466, N-[3-(1-cyclopropyl-3-piperidyl)-5-methyl-phenyl]-1-(3,5-difluorophenyl)-1,2,4-triazol-3-amine] | 100 to 1000 | ≤ 1 |
| Cc1cc(Nc2ncn(-c3cc(F)cc(N4CC[C@@H](F)C4)c3)n2)cc(N2CCN(C3COC3)CC2)c1 [Compound 467, 1-[3-fluoro-5-[(3R)-3-fluoropyrrolidin-1-yl]phenyl]-N-[3-methyl-5-[4-(oxetan-3-yl)piperazin-1-yl]phenyl]-1,2,4-triazol-3-amine] | 100 to 1000 | 10 to 100 |
| CCc1cc(Nc2ncn(-c3cccc(F)c3)n2)cc(N2CCN(C3COC3)CC2)c1 [Compound 468, N-[3-ethyl-5-[4-(oxetan-3-yl)piperazin-1-yl]phenyl]-1-(3-fluorophenyl)-1,2,4-triazol-3-amine] | 100 to 1000 | 1 to 10 |
| Cc1cc(Nc2ncn(-c3cc(F)ccc3F)n2)cc(N2CCN(C3(C)COC3)CC2)c1 [Compound 469, 1-(2,5-difluorophenyl)-N-[3-methyl-5-[4-(3-methyloxetan-3-yl)piperazin-1-yl]phenyl]-1,2,4-triazol-3-amine] | 100 to 1000 | 10 to 100 |
| Cc1cc(N2CCN(C3COC3)CC2)cc(Nc2ncn(-c3cnccn3)n2)c1C [Compound 470, N-[2,3-dimethyl-5-[4-(oxetan-3-yl)piperazin-1-yl]phenyl]-1-pyrazin-2-yl-1,2,4-triazol-3-amine] | 10 to 100 | 100 to 1000 |
| COc1c(C)cc(N2CCN(C3COC3)CC2)cc1Nc1ncn(-c2cnccn2)n1 [Compound 471, N-[2-methoxy-3-methyl-5-[4-(oxetan-3-yl)piperazin-1-yl]phenyl]-1-pyrazin-2-yl-1,2,4-triazol-3-amine] | 1 to 10 | ≤ 1 |
| Cc1cc(Nc2ncn(-c3cc(F)cc(F)c3)n2)cc(NC2CCN(C3COC3)C2)c1 (stereo not shown) [Compound 472, N3-[1-(3,5-difluorophenyl)-1,2,4-triazol-3-yl]-5-methyl-N1-[1-(oxetan-3-yl)pyrrolidin-3-yl]benzene-1,3-diamine] | 100 to 1000 | ≤ 1 |
| Fc1cc(F)cc(-n2cnc(Nc3cc(N4CCOCC4)cc(C(F)(F)F)c3)n2)c1 [Compound 475, 1-(3,5-difluorophenyl)-N-[3-morpholino-5-(trifluoromethyl)phenyl]-1,2,4-triazol-3-amine] | 100 to 1000 | 1000 to 10000 |
| Cc1cc(Nc2ncn(-c3cc(C)ccc3F)n2)cc(N2CCN(C3COC3)CC2)c1 [Compound 476, 1-(2-fluoro-5-methyl-phenyl)-N-[3-methyl-5-[4-(oxetan-3-yl)piperazin-1-yl]phenyl]-1,2,4-triazol-3-amine] | 10 to 100 | 10 to 100 |
| CN1CCN(c2cc(Nc3ncn(-c4ccc(F)c(F)c4)n3)cc(Cl)n2)CC1 [Compound 477, 2-chloro-N-[1-(3,4-difluorophenyl)-1,2,4-triazol-3-yl]-6-(4-methylpiperazin-1-yl)pyridin-4-amine] | 10 to 100 | ≤ 1 |
| Cc1cc(Nc2ncn(-c3ccc(OC(F)(F)F)cc3)n2)cc(N2CCN(C3COC3)CC2)c1 [Compound 478, N-[3-methyl-5-[4-(oxetan-3-yl)piperazin-1-yl]phenyl]-1-[4-(trifluoromethoxy)phenyl]-1,2,4-triazol-3-amine] | 1 to 10 | 1 to 10 |
| Cc1cc(Nc2ncn(-c3ccccc3)n2)cc(N2C[C@@H]3C[C@H]2CN3C)c1 [Compound 479, N-[3-methyl-5-[(1S,4S)-5-methyl-2,5-diazabicyclo[2.2.1]heptan-2-yl]phenyl]-1-phenyl-1,2,4-triazol-3-amine] | 100 to 1000 | ≤ 1 |
| Cc1cc(Nc2ncn(-c3cc(F)cc(N4CCC(CO)C4)c3)n2)cc(N2CCN(C3COC3)CC2)c1 (stereo not shown) [Compound 480, [1-[3-fluoro-5-[3-[3-methyl-5-[4-(oxetan-3-yl)piperazin-1-yl]anilino]-1,2,4-triazol-1-yl]phenyl]pyrrolidin-3-yl]methanol] | 10 to 100 | ≤ 1 |
| COCC1CCN(c2cc(C)cc(Nc3ncn(-c4ccccc4)n3)c2)CC1 [Compound 481, N-[3-[4-(methoxymethyl)-1-piperidyl]-5-methyl-phenyl]-1-phenyl-1,2,4-triazol-3-amine] | 100 to 1000 | 100 to 1000 |
